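Following 48 hours of exposure in 96-well plates, responses at five concentrations were used to interpolate endpoints linearly. TGI is the concentration that stops growth completely.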
Tests used:
Experiment in all cases: DTP human tumour cell line panel, 48 h
[1] = test system: SF-268 CNS
[2] = test system: HCC-2998 colon
[3] = test system: MDA-MB-435
[4] = test system: M14 melanoma
[5] = test system: MALME-3M melanoma
[6] = test system: SN12C renal
[7] = test system: EKVX NSCLC
[8] = test system: KM12 colon
[9] = test system: MOLT-4 leukemia
[10] = test system: SK-MEL-2 melanoma
[11] = test system: SW-620 colon
[12] = test system: NCI-H522 lung
[13] = test system: U251 CNS
[14] = test system: IGROV1 ovarian
[15] = test system: NCI-H23 lung
[16] = test system: PC-3 prostate
[17] = test system: HT29 colon
[18] = test system: HS 578T breast
[19] = test system: SNB-19 CNS
[20] = test system: 786-0 renal
[21] = test system: A549 NSCLC
[22] = test system: HOP-92 NSCLC
[23] = test system: SF-539 CNS
[24] = test system: OVCAR-3 ovarian
[25] = test system: HCT-15 colon
[26] = test system: T-47D breast
[27] = test system: BT-549 breast
[28] = test system: K-562 leukemia
[29] = test system: UO-31 renal
[30] = test system: OVCAR-4 ovarian
[31] = test system: HOP-62 NSCLC
[32] = test system: OVCAR-5 ovarian
[33] = test system: HL-60(TB) leukemia
[34] = test system: CCRF-CEM leukemia
[35] = test system: RPMI-8226 leukemia
[36] = test system: TK-10 renal
[37] = test system: HCT-116 colon
[38] = test system: DU-145 prostate
[39] = test system: RXF 393 renal
[40] = test system: CAKI-1 renal
[41] = test system: SK-OV-3 ovarian
[42] = test system: UACC-257 melanoma
[43] = test system: NCI/ADR-RES ovarian
[44] = test system: SF-295 CNS
[45] = test system: NCI-H460 lung
[46] = test system: ACHN renal
[47] = test system: UACC-62 melanoma
[48] = test system: LOX IMVI melanoma
[49] = test system: COLO 205 colon
[50] = test system: SK-MEL-5 melanoma
[51] = test system: MDA-N
[52] = test system: NCI-H226 lung
[53] = test system: SR leukemia
[54] = test system: OVCAR-8 ovarian
[55] = test system: MCF7 breast
[56] = test system: MDA-MB-231 breast
[57] = test system: A498 renal
[58] = test system: SK-MEL-28 melanoma
[59] = test system: SNB-75 CNS

Compound: Cc1ccc(O)c(C2=CC(c3cccc(Cl)c3)SC(N)=N2)c1 (stereo unspecified)
- TGI [1]: > 100 µM
- TGI [2]: 33.4 µM
- TGI [3]: 37.1 µM
- TGI [4]: 68.3 µM
- TGI [5]: 62.5 µM
- TGI [6]: 34.7 µM
- TGI [7]: 61.8 µM
- TGI [8]: 89.6 µM
- TGI [9]: 61.4 µM
- TGI [10]: 38.2 µM
- TGI [11]: 65.9 µM
- TGI [12]: 34 µM
- TGI [13]: 34.4 µM
- TGI [14]: 46.5 µM
- TGI [15]: 80.1 µM
- TGI [16]: 73.6 µM
- TGI [17]: 46.3 µM
- TGI [18]: 47.9 µM
- TGI [19]: 37.7 µM
- TGI [20]: > 100 µM
- TGI [21]: 62.9 µM
- TGI [22]: 42.9 µM
- TGI [23]: 53.1 µM
- TGI [24]: 90.1 µM
- TGI [25]: 38.2 µM
- TGI [26]: 99.2 µM
- TGI [27]: 85 µM
- TGI [28]: 55.5 µM
- TGI [29]: 69.1 µM
- TGI [30]: 23.6 µM
- TGI [31]: 64.1 µM
- TGI [32]: 73.5 µM
- TGI [33]: 61.6 µM
- TGI [34]: 83.1 µM
- TGI [35]: 42.6 µM
- TGI [36]: 51.7 µM
- TGI [37]: 39.7 µM
- TGI [38]: > 100 µM
- TGI [39]: 63.6 µM
- TGI [40]: > 100 µM
- TGI [41]: 80 µM
- TGI [42]: 46.8 µM
- TGI [43]: > 100 µM
- TGI [44]: 36.9 µM
- TGI [45]: 64 µM
- TGI [46]: 54.4 µM
- TGI [47]: 28.8 µM
- TGI [48]: 34.7 µM
- TGI [49]: 39.8 µM
- TGI [50]: 30.1 µM
- TGI [51]: 39.7 µM
- TGI [52]: 38.9 µM
- TGI [53]: 46.5 µM
- TGI [54]: > 100 µM
- TGI [55]: > 100 µM

Compound: COc1ccc(N2C(=O)C3c4[nH]c5ccc(Br)cc5c4C4CCC(C(C)(C)C)CC4C3C2=O)cc1 (stereo unspecified)
- TGI [1]: > 100 µM
- TGI [2]: > 100 µM
- TGI [3]: > 100 µM
- TGI [4]: > 100 µM
- TGI [5]: > 100 µM
- TGI [6]: > 100 µM
- TGI [7]: > 100 µM
- TGI [8]: > 100 µM
- TGI [9]: > 100 µM
- TGI [10]: > 100 µM
- TGI [11]: > 100 µM
- TGI [12]: > 100 µM
- TGI [13]: > 100 µM
- TGI [14]: > 100 µM
- TGI [15]: > 100 µM
- TGI [16]: > 100 µM
- TGI [17]: > 100 µM
- TGI [18]: > 100 µM
- TGI [19]: > 100 µM
- TGI [56]: > 100 µM
- TGI [20]: > 100 µM
- TGI [21]: > 100 µM
- TGI [23]: > 100 µM
- TGI [24]: > 100 µM
- TGI [25]: > 100 µM
- TGI [27]: > 100 µM
- TGI [28]: > 100 µM
- TGI [57]: > 100 µM
- TGI [30]: > 100 µM
- TGI [31]: > 100 µM
- TGI [32]: > 100 µM
- TGI [33]: > 100 µM
- TGI [34]: > 100 µM
- TGI [35]: > 100 µM
- TGI [36]: > 100 µM
- TGI [37]: > 100 µM
- TGI [38]: > 100 µM
- TGI [39]: > 100 µM
- TGI [40]: > 100 µM
- TGI [41]: > 100 µM
- TGI [42]: > 100 µM
- TGI [43]: > 100 µM
- TGI [44]: > 100 µM
- TGI [45]: > 100 µM
- TGI [46]: > 100 µM
- TGI [47]: > 100 µM
- TGI [48]: > 100 µM
- TGI [49]: > 100 µM
- TGI [50]: > 100 µM
- TGI [51]: > 100 µM
- TGI [52]: > 100 µM
- TGI [53]: > 100 µM
- TGI [58]: > 100 µM
- TGI [54]: > 100 µM
- TGI [55]: > 100 µM

Compound: CN(/N=C/c1cccc2cccnc12)c1ccc(Cl)cc1[N+](=O)[O-]
- TGI [1]: > 100 µM
- TGI [2]: > 100 µM
- TGI [3]: > 100 µM
- TGI [4]: > 100 µM
- TGI [5]: > 100 µM
- TGI [6]: > 100 µM
- TGI [7]: > 100 µM
- TGI [8]: > 100 µM
- TGI [9]: > 100 µM
- TGI [10]: > 100 µM
- TGI [11]: > 100 µM
- TGI [12]: > 100 µM
- TGI [13]: > 100 µM
- TGI [14]: > 100 µM
- TGI [15]: > 100 µM
- TGI [16]: > 100 µM
- TGI [17]: > 100 µM
- TGI [18]: > 100 µM
- TGI [19]: > 100 µM
- TGI [56]: > 100 µM
- TGI [20]: > 100 µM
- TGI [21]: > 100 µM
- TGI [22]: > 100 µM
- TGI [23]: > 100 µM
- TGI [24]: > 100 µM
- TGI [59]: > 100 µM
- TGI [25]: > 100 µM
- TGI [27]: > 100 µM
- TGI [28]: > 100 µM
- TGI [29]: > 100 µM
- TGI [57]: > 100 µM
- TGI [30]: > 100 µM
- TGI [31]: > 100 µM
- TGI [32]: > 100 µM
- TGI [33]: > 100 µM
- TGI [34]: > 100 µM
- TGI [35]: > 100 µM
- TGI [36]: > 100 µM
- TGI [37]: > 100 µM
- TGI [38]: > 100 µM
- TGI [39]: > 100 µM
- TGI [40]: > 100 µM
- TGI [41]: > 100 µM
- TGI [42]: > 100 µM
- TGI [43]: > 100 µM
- TGI [44]: > 100 µM
- TGI [45]: > 100 µM
- TGI [46]: > 100 µM
- TGI [47]: > 100 µM
- TGI [49]: > 100 µM
- TGI [50]: > 100 µM
- TGI [51]: > 100 µM
- TGI [52]: > 100 µM
- TGI [53]: > 100 µM
- TGI [54]: > 100 µM
- TGI [55]: > 100 µM
